Where two headings read alike, the source gives them in different places.
What was measured:
[1] = target: T1, ligand binding domain of PPAR delta (Homo sapiens, UniProt Q03181); experiment: LANTHA SCREEN TR-FRET PPARδ Competitive Binding Assay
T1 construct: purchased Invitrogen
T1 sequence (Q03181 211-439 limits assumed): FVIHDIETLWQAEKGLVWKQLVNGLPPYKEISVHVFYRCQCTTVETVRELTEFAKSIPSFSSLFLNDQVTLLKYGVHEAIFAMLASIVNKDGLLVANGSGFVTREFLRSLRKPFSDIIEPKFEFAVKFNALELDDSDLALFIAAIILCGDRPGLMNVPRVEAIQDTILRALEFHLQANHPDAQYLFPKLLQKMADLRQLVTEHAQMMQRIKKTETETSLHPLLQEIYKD
Protocol: (§1) The LANTHA SCREEN™ TR-FRET PPARδ Competitive Binding Assay was conducted for a variety of compounds according to the instructions provided by the manufacturer (Invitrogen). In addition, proliferation assays were conducted. In Table 2, “Prolif IC50” is the concentration that inhibits cell viability (or growth) by 50% relative to a vehicle control, and “TR-F binding IC50 (μM)” is the concentration that competes binding by a labeled pan-agonist to the ligand binding domain of PPAR delta, by 50%.

[2] = Proliferation assay of Table 2 (cell line not stated); assay type: cell-based; conditions: concentration that inhibits cell viability (or growth) by 50% relative to vehicle control; read-out: Prolif IC50
Protocol: as §1

LBD of PPARδ protein = target: T2, LBD of PPARδ protein (Homo sapiens, UniProt Q03181); experiment: PPARδ ligand-binding domain (LBD)/Gal4 UAS-tk-luciferase reporter assay in U2-OS cells; assay type: cell-based; conditions: from GAL-4 binding and PPRE transactivation reporter screens
T2 construct: co-transfection of a plasmid containing an LBD/Gal4 fusion construct; expressed in transfected cells; host or cells: U2-OS (human bone cancer line)
T2 sequence (Q03181 211-439 limits assumed): T1 sequence (Q03181 211-439 limits assumed)
Protocol: (§2) General Testing Procedures. Each ligand was screened for PPARδ binding and transactivation activity through the use of two complementary reporter assays as described below. In both systems, transfection efficiency was standardized by co-transfection of a control Renilla luciferase. U2-OS (human bone cancer line) cells were used for both assays because this is the cell line of choice for screening PPAR ligands. At 18 h post-transfection, GW 501, with and without the ligands of the disclosure, was added to the cells and incubated for an additional 24 h. The cells were then harvested and luciferase activities profiled.
A PPARδ protein ligand-binding domain (LBD) assay. The LBD assay consists of cellular co-transfection of a plasmid containing an LBD/Gal4 fusion construct and a vector containing a UAS-tk-luciferase reporter construct under the transcriptional control of a Gal4 upstream activating sequence. This system was used to test for binding activities of candidate PPARδ ligands to the LBD of PPARδ protein.
(§3) Referring to FIG. 3, U2-OS cells were transiently transfected with appropriate expression and reporter vectors. Ligands were added to the cell cultures 24 h post-transfection and incubated for an additional 16 h. Lipoprotein lipase (LPL; 2 μg/ml) was added with VLDL (5 μg/ml) to release PPARδ-active triglycerides. FIG. 3A: PPARδ LBD/Gal4/UAS-tk-luc competition assays with VLDL SR13904 (0-10 μM). The reporter activation (fold increase over blank) is presented relative to GW501516 at 7 nM (fold increase over blank=100). FIG. 3B: PPRE reporter assays using 0, 1, and 10 μM SR13904+VLDL. All assays were repeated in triplicate.

PPARδ = target: T3, PPARδ (Homo sapiens, UniProt Q03181); experiment: PPRE promoter/luciferase reporter (transactivation) assay in U2-OS cells; assay type: cell-based
T3 construct: expressed in transfected cells; host or cells: U2-OS (human bone cancer line)
T3 sequence (Q03181 1-441): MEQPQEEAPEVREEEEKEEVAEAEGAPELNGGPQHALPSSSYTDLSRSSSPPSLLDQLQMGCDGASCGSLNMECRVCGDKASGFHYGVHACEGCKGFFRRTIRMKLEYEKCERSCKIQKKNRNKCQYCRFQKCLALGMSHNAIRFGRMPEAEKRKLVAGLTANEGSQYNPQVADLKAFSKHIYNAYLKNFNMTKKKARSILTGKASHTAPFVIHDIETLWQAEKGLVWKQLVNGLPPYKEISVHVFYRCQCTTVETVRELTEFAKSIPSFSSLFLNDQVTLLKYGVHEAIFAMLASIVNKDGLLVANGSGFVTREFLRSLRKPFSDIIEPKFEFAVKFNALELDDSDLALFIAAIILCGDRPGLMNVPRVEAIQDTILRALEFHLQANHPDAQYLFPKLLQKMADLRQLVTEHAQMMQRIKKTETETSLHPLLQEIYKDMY
Protocol: as §2
A promoter/luciferase reporter assay. This assay involves co-transfection of a PPARδ expression vector and a plasmid containing a luciferase gene under the control of PPARδ responsive DNA element (three copies of a consensus PPAR response element, PPRE). This assay was used to directly test ligand effects on PPARδ-responsive genes.
as §3

A549 cells = experiment: Apoptosis, Cell Death Detection ELISA (DNA fragmentation) in A549 cells; assay type: cell-based, human; conditions: A549, GW501 1 μM with SR13904 15 μM
Protocol: Referring now to FIG. 6, SR13904 treatment of cancer cells results in increased apoptosis. A549 cells (2×10^4 cells/well) were incubated in 0.5% media (96 well plates) SR13904 for 40 h. The relative degrees of apoptosis were determined using a Cell Death Detection ELISA (Roche). SR represents SR13904. ***p=<0.001 SR vs. SR+GW501.
SR13904 treatment results in increased apoptosis. Down-regulation of PPARδ, either by genetic knockout or by the treatment with 13-S—HODE (15-lipoxygenase-1 product), induces apoptosis in colorectal cancer cells. The effects of SR13904 (15 μM) GW501 (1 μM) on survival of A549 cells (0.5% serum) was determined. Relative degrees of apoptosis were measured using a DNA fragmentation assay.

[3] = Solubility in DMSO (noted in binding assay column); assay type: physicochemical
[4] = competes binding by a labeled pan-agonist by 50%, * = determined by approximation from a semi log graph, read-out: TR-F binding IC50

Q: With `Cc1cc(SCC(=O)N(Cc2ccc(Cl)cc2)C(c2ccccc2)c2ccccc2)ccc1OCC(=O)O` [SRI-010256] as the molecule, how does the IC50 [1, 4] read?
A: > 18 µM

Q: With `Cc1cc(SCC(=O)N(Cc2ccccc2)C(c2ccccc2)c2ccccc2)ccc1OCC(=O)O` [SRI-010255] as the molecule, how does the IC50 [2] read?
A: 5 µM

Q: And the IC50 [1, 4]?
A: > 12 µM

Q: Which IC50 [2] does the source give for `COc1ccc(CN(C(=O)CCSc2ccc(OCC(=O)O)c(C)c2)C(c2ccccc2)c2ccccc2)cc1OC` [SRI-010265] here?
A: > 40 µM

Q: And the IC50 [1, 4]?
A: > 30 µM

Q: What does the source list for `Cc1cc(SCCN2c3ccccc3Sc3ccccc32)ccc1OCC(=O)O` [SRI-010251]?
A: IC50 [2]: 7.6 µM; IC50 [1, 4]: 13.7 µM

Q: Which “PPARδ ligand profile (agonist/antagonist)” value (LBD of PPARδ protein) does the source give for `CCCc1cc(SCc2sc(-c3ccc(CC)cc3)nc2C)ccc1OCC(N)=O` [SR 13910] here?
A: low-affinity agonists

Q: Which results are given for `Cc1cc(SCCOC2c3ccccc3-c3ccccc32)ccc1OCC(=O)O` [SRI-010248]?
A: IC50 [2]: 9 µM; IC50 [1, 4]: > 30 µM

Q: Which “inhibition of PPARδ-mediated transactivation” value (PPARδ) does the source give for `CCCc1cc(SCc2sc(-c3cccc4ccccc34)nc2C)ccc1OCC(=O)O` [SR 13905] here?
A: appear to inhibit

Q: For `Cc1cc(SCc2sc(-c3ccc4ccccc4c3)nc2C)ccc1OCC(=O)O` [SR 13961], which “PPARδ ligand profile (agonist/antagonist)” value (LBD of PPARδ protein) is on record?
A: low-affinity agonists

Q: For `Cc1cc(SCCC(=O)N(Cc2ccc(F)c(F)c2)C(c2ccccc2)c2ccccc2)ccc1OCC(=O)O` [SRI-010263], which IC50 [2] is on record?
A: 9.1 µM

Q: And the IC50 [1, 4]?
A: > 25 µM

Q: For `Cc1cc(SCCOC(c2ccccc2)c2ccc(C(F)(F)F)cc2)ccc1OCC(=O)O` (stereo not shown) [SRI-010254], which IC50 [2] is on record?
A: 7.4 µM

Q: What about the IC50 [1, 4] of the same molecule?
A: 1.3 µM

Q: Which IC50 [2] does the source give for `COc1ccc(CN(C(=O)CSc2ccc(OCC(=O)O)c(C)c2)C(c2ccccc2)c2ccccc2)cc1OC` [SRI-010259] here?
A: > 40 µM

Q: What about the IC50 [1, 4] of the same molecule?
A: > 30 µM

Q: Which IC50 [2] does the source give for `Cc1cc(SCC(=O)N(Cc2ccc(Cl)cc2Cl)C(c2ccccc2)c2ccccc2)ccc1OCC(=O)O` [SRI-010258] here?
A: 4.8 µM

Q: What about the IC50 [1, 4] of the same molecule?
A: > 14 µM

Q: Which IC50 [2] does the source give for `Cc1cc(SCCn2c3ccccc3c3ccccc32)ccc1OCC(=O)O` [SRI-010252] here?
A: 9 µM

Q: And the IC50 [1, 4]?
A: > 30 µM

Q: With `CCCc1cc(SCc2sc(-c3ccc(C(C)(C)C)cc3)nc2C)ccc1OCC(=O)O` [SR 13907] as the molecule, how does the “inhibition of PPARδ-mediated transactivation” value (PPARδ) read?
A: appear to inhibit

Q: And the “PPARδ ligand profile (agonist/antagonist)” value (LBD of PPARδ protein)?
A: low-affinity agonists

Q: With `Cc1cc(SCCC(=O)NC(c2ccccc2)c2ccccc2)ccc1OCC(=O)O` [SRI-010266] as the molecule, how does the IC50 [2] read?
A: > 40 µM

Q: And the IC50 [1, 4]?
A: > 30 µM

Q: With `Cc1cc(SCCOC(c2ccc(F)cc2)c2ccc(F)cc2)ccc1OCC(=O)O` [SRI-010249] as the molecule, how does the IC50 [2] read?
A: 5.4 µM

Q: What about the IC50 [1, 4] of the same molecule?
A: 0.85 µM

Q: What about the IC50 ([1]; repeat determination of TR-F binding IC50, read-out: repeat TR-F) of the same molecule?
A: 1.2 µM

Q: For `Cc1cc(SCc2sc(-c3ccc(C(F)(F)F)cc3)nc2C)ccc1OCC(=O)O` [GW 501516, reference compound], which “effect of co-treatment on SR13904-induced apoptosis” value (A549 cells) is on record?
A: markedly alleviated

Q: Which IC50 [2] does the source give for `Cc1cc(SCCC(=O)N(Cc2ccccc2)C(c2ccccc2)c2ccccc2)ccc1OCC(=O)O` [SRI-010261] here?
A: 8.5 µM

Q: And the IC50 [1, 4]?
A: > 20 µM

Q: With `Cc1cc(SCC(=O)N(Cc2ccc(F)c(F)c2)C(c2ccccc2)c2ccccc2)ccc1OCC(=O)O` [SRI-010257] as the molecule, how does the IC50 [2] read?
A: 9.1 µM

Q: What about the IC50 [1, 4] of the same molecule?
A: > 23 µM

Q: What does the source list for `Cc1cc(SCc2sc(-c3ccc(C(C)(C)C)cc3)nc2C)ccc1OCC(=O)O` [SR 13906]?
A: inhibition of PPARδ-mediated transactivation (PPARδ): appear to inhibit; PPARδ ligand profile (agonist/antagonist) (LBD of PPARδ protein): low-affinity agonists

Q: With `Cc1cc(SCCOC(c2ccccc2)c2ccccc2)ccc1OCC(=O)O` [SRI-010253] as the molecule, how does the IC50 [2] read?
A: 14 µM

Q: What about the IC50 [1, 4] of the same molecule?
A: 3 µM

Q: For `Cc1cc(SCCC(=O)N(Cc2ccc(Cl)cc2)C(c2ccccc2)c2ccccc2)ccc1OCC(=O)O` [SRI-010262], which IC50 [2] is on record?
A: 5.6 µM

Q: And the IC50 [1, 4]?
A: > 18 µM

Q: With `Cc1cc(SCCN2c3ccccc3Sc3ccc(C(F)(F)F)cc32)ccc1OCC(=O)O` [SRI-010250] as the molecule, how does the IC50 [2] read?
A: 7 µM

Q: And the IC50 [1, 4]?
A: 3.8 µM

Q: For `Cc1cc(SCC(=O)NC(c2ccccc2)c2ccccc2)ccc1OCC(=O)O` [SRI-010260], which IC50 [2] is on record?
A: > 40 µM

Q: And the “solubility in DMSO” value [3]?
A: not soluble in DMSO

Q: What does the source list for `Cc1cc(SCCC(=O)N(Cc2ccc(Cl)cc2Cl)C(c2ccccc2)c2ccccc2)ccc1OCC(=O)O` [SRI-010264]?
A: IC50 [2]: 5.9 µM; IC50 [1, 4]: > 25 µM
